Patent US7691855B2, “Phenyl-[4-(3-phenyl-1h-pyrazol-4-yl)-pyrimidin-2-yl)-amine derivatives” (Novartis AG, priority 2002, dated 2010)

Experiments:
VEGF Receptor (KDR) = target: T1, VEGF Receptor (KDR) (Homo sapiens, UniProt P35968); experiment: Inhibition of VEGF receptor (KDR) tyrosine kinase activity; format: biochemical
T1 construct: as in the cited Wood et al. 2000 method
Procedure: The compounds of the present invention are therefore very effective dual inhibitors of EGF- and VEGF-receptor family members. For inhibition of KDR and Flt-1 and inhibition of growth factor-induced proliferation of HUVECS see J. Wood et al., Cancer Res. 60, 2178-2189 (2000). The compounds of formula I inhibit e.g. the KDR tyrosine kinase activity with an IC50 of from about 1 nM to about 1 μM, especially from about 5 nM to about 0.5 μM.
(§1) Inhibition of the tyrosine kinase Activity of EGF-R (HER-1), ErbB-2 (HER-2) and VEGF Receptor (KDR)
(§2) The inhibition tests are carried out as described above.

ErbB-2 (HER-2) = ErbB-2 (HER-2) (Homo sapiens, UniProt P04626); experiment: Inhibition of ErbB-2 (HER-2) tyrosine kinase activity; format: biochemical
Chain of ErbB-2 (HER-2) (P04626 23-1255): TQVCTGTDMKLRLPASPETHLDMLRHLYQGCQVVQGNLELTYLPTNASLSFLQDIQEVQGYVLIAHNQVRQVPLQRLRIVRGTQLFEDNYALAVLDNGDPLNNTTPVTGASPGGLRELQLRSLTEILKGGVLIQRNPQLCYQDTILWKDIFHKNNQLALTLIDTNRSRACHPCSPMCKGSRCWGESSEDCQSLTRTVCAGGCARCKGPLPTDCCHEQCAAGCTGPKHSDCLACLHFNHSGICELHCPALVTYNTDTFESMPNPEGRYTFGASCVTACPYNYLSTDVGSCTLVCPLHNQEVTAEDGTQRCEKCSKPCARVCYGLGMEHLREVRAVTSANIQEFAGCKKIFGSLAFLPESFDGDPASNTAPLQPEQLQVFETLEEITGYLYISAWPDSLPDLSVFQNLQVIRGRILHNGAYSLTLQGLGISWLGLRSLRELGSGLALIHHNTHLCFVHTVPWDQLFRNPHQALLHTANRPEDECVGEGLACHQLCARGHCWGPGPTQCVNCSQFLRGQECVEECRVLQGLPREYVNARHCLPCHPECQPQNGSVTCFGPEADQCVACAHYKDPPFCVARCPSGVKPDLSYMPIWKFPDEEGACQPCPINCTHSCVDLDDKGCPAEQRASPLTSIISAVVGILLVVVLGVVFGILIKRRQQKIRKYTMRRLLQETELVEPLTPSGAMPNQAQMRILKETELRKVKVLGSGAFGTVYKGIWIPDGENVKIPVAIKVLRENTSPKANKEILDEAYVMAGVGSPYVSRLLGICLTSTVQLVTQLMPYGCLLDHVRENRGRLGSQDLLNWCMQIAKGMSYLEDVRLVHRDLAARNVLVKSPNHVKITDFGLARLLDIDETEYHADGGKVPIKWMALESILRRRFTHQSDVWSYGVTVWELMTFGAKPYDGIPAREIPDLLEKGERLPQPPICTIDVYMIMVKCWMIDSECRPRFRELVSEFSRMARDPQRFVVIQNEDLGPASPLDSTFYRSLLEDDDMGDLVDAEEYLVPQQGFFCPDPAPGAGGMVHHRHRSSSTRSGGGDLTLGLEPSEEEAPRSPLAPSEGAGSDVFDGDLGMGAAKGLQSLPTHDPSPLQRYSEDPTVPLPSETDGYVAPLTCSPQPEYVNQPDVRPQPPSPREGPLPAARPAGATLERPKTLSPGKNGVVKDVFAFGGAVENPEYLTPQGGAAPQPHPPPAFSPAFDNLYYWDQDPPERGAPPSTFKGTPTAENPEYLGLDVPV
Procedure: The inhibitory activity (IC50) is approximately in the range of 0.001 to 0.5 μM. The inhibition of ErbB2 tyrosine kinase (HER-2) can be determined, for example, analogously to the method used for EGF-R protein tyrosine kinase [see C. House et al., Europ. J. Biochem. 140. 363-367 (1984)]. The ErbB-2 kinase can be isolated, and its activity determined, by means of protocols known per se, for example in accordance with T. Akiyama et al., Science 232 1644 (1986).
as §1, §2

EGF-R (HER-1) = target: T2, EGF-R (HER-1) (Homo sapiens, UniProt P00533); experiment: Inhibition of EGF-R (HER-1) tyrosine kinase activity; format: biochemical; details: recombinant intracellular domain of the EGF-receptor
T2 construct: using the recombinant intracellular domain of the EGF-receptor [EGF-R ICD
T2 sequence (P00533 669-1210 limits assumed): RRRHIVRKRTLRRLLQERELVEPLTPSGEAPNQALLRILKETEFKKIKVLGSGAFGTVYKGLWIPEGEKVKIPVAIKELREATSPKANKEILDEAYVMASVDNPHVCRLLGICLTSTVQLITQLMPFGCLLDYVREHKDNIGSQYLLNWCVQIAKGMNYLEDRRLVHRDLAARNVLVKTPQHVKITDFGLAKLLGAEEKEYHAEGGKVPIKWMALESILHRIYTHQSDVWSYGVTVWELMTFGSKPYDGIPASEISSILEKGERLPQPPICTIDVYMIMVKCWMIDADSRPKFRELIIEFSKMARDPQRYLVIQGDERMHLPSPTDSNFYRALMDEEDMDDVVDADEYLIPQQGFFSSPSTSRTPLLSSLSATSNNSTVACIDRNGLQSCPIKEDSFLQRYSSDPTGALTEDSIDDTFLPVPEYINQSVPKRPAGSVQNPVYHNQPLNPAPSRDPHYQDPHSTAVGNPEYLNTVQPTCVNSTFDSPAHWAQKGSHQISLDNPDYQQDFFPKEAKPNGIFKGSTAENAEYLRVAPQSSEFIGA
Procedure: J. Biochem. 207, 265-275 (1992)]. Compared with the control without inhibitor, the compounds of formula I inhibit the enzyme activity by 50% (IC50), for example in a concentration of from 0.0005 to 0.5 μM, especially from 0.001 to 0.1 μM.
as §1, §2

T1 sequence (P35968 834-1162 limits assumed): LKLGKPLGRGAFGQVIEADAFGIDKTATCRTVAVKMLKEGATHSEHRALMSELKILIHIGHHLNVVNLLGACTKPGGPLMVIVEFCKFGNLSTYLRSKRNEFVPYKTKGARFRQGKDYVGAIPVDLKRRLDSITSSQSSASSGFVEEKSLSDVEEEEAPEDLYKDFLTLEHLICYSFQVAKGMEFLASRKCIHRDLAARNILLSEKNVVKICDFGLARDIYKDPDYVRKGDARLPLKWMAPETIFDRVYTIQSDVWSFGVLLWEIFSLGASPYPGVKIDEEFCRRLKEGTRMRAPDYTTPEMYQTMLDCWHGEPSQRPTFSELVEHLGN

Cc1ccc(-c2n[nH]cc2-c2ccnc(Nc3ccc(CN4CCN(C)CC4)cc3)n2)cc1 [Example 60, [4-(4-Methyl-piperazin-1-ylmethyl)-phenyl]-[4-(3-p-tolyl-1H-pyrazol-4-yl)-pyrimidin-2-yl]-amine]
IC50 (VEGF Receptor (KDR)): 10 nM
melting point: 250 °C
IC50 (ErbB-2 (HER-2)): 44 nM
IC50 (EGF-R (HER-1)): 20 nM

CN(C)CCOc1ccc(Nc2nccc(-c3c[nH]nc3-c3ccc(Cl)cc3)n2)cc1 [Example 2, {4-[3-(4-Chloro-phenyl)-1H-pyrazol-4-yl]-pyrimidin-2-yl}-[4-(2-dimethyl-amino-ethoxy)-phenyl]-amine]
IC50 (VEGF Receptor (KDR)): 21 nM
IC50 (ErbB-2 (HER-2)): 19 nM
IC50 (EGF-R (HER-1)): 22 nM

CN1CCN(c2ccc(Nc3nccc(-c4cn(C)nc4-c4ccc(Cl)cc4)n3)cc2)CC1 [Example 91, {4-[3-(4-Chloro-phenyl)1-methyl-1H-pyrazol-4yl]-pyrimidin-2-yl}-[4-(4-methyl-piperazin-1-yl)-phenyl]-amine]
IC50 (VEGF Receptor (KDR)): 28 nM
IC50 (ErbB-2 (HER-2)): 42 nM
IC50 (EGF-R (HER-1)): 18 nM

COc1cc(Nc2nccc(-c3c[nH]nc3-c3ccc4c(c3)OCO4)n2)cc(OC)c1OC [Example 46, [4-(3-Benzo[1,3]dioxol-5-yl-1H-pyrazol-4-yl)-pyrimidin-2-yl]-(3,4,5-trimethoxy-phenyl)-amine]
IC50 (VEGF Receptor (KDR)): 3 nM
IC50 (ErbB-2 (HER-2)): 6 nM
IC50 (EGF-R (HER-1)): 28 nM

Cc1ccc(-c2n[nH]cc2-c2ccnc(Nc3cccc(OCC4CCN(C)CC4)c3)n2)cc1 [Example 124, [3-(1-Methyl-piperidin-4-ylmethoxy)-phenyl]-[4-(3-p-tolyl-1H-pyrazol-4yl)-pyrimidin-2-yl]-amine]
IC50 (VEGF Receptor (KDR)): 5 nM
IC50 (ErbB-2 (HER-2)): 17 nM
IC50 (EGF-R (HER-1)): 3 nM

Cc1cccc(-c2n[nH]cc2-c2ccnc(Nc3ccc(OCCN(C)C)cc3)n2)c1 [Example 20, [4-(2-Dimethylamino-ethoxy)-phenyl]-[4-(3-m-tolyl-1H-pyrazol-4-yl)-pyrimidin-2-yl]-amine]
IC50 (VEGF Receptor (KDR)): 6 nM
IC50 (ErbB-2 (HER-2)): 15 nM
IC50 (EGF-R (HER-1)): 27 nM

CN(C)CCOc1ccc(Nc2nccc(-c3c[nH]nc3-c3ccc(Cl)c(Cl)c3)n2)cc1 [Example 21, {4-[3-(3,4-Dichloro-phenyl)-1H-pyrazol-4-yl]-pyrimidin-2-yl}-[4-(2-dimethylamino-ethoxy)-phenyl]-amine]
IC50 (VEGF Receptor (KDR)): 15 nM
IC50 (ErbB-2 (HER-2)): 16 nM
IC50 (EGF-R (HER-1)): 29 nM

CCN1CCN(Cc2ccc(Nc3nccc(-c4c[nH]nc4-c4ccc(C)cc4)n3)cc2)CC1 [Example 101, [4-(4-Ethyl-piperazin-1-ylmethyl)-phenyl]-[4-(3-p-tolyl-1H-pyrazol-4)-pyrimidin-2-yl]-amine]
IC50 (VEGF Receptor (KDR)): 4 nM
IC50 (ErbB-2 (HER-2)): 28 nM
IC50 (EGF-R (HER-1)): 13 nM

Cc1cccc(-c2n[nH]cc2-c2ccnc(Nc3ccc(N4CCN(C)CC4)cc3)n2)c1 [Example 18, [4-(4-Methyl-piperazin-1yl)-phenyl]-[4-(3-m-tolyl-1H-pyrazol-4-yl)-pyrimidin-2-yl]-amine]
IC50 (VEGF Receptor (KDR)): 4 nM
IC50 (ErbB-2 (HER-2)): 13 nM
IC50 (EGF-R (HER-1)): 21 nM

CN1CCN(c2ccc(Nc3nccc(-c4c[nH]nc4-c4ccc(Cl)cc4)n3)cc2)CC1 [Example 1, {4-[3-(4-Chloro-phenyl)1H-pyrazol-4yl]-pyrimidin-2-yl}-[4-(4-methyl-piperazin-1-yl)-phenyl]-amine]
IC50 (VEGF Receptor (KDR)): 10 nM
melting point: 282 to 284 °C
IC50 (ErbB-2 (HER-2)): 23 nM
IC50 (EGF-R (HER-1)): 18 nM

Clc1ccc(-c2n[nH]cc2-c2ccnc(Nc3ccc(-c4nnn[nH]4)cc3)n2)cc1 [Example 116, {4-[3-(4-Chloro-phenyl)-1H-pyrazol-4-yl]-pyrimidin-2-yl}-[4-(1H-tetrazol-5-yl)-phenyl]-amine]
IC50 (VEGF Receptor (KDR)): 21 nM
melting point: 369 °C
IC50 (ErbB-2 (HER-2)): < 10 nM
IC50 (EGF-R (HER-1)): 9 nM

CCN1CCN(c2ccc(Nc3nccc(-c4c[nH]nc4-c4ccc(C)cc4)n3)cc2)CC1 [Example 109, [4-(4-Ethyl-piperazin-1-yl)-phenyl]-[4-(3-p-tolyl-1H-pyrazol-4yl)-pyrimidin-2-yl]-amine]
IC50 (VEGF Receptor (KDR)): 3 nM
melting point: 280 °C
IC50 (ErbB-2 (HER-2)): 34 nM
IC50 (EGF-R (HER-1)): 16 nM
